Test results as given in publication PMC9664868, “Dephospho-Coenzyme A Kinase Is an Exploitable Drug Target against Plasmodium falciparum: Identification of Selective Inhibitors by High-Throughput Screening of a Large Chemical Compound Library” (Antimicrobial Agents and Chemotherapy, 2022).
Like-named read-outs stand apart in the source and are kept apart here.

Legend:
PfDPCK = PfDPCK (Plasmodium falciparum, UniProt Q8IL34); experiment: PfDPCK inhibition, enzyme-coupled fluorescence ADP detection assay (HTS and IC50 determination); assay type: biochemical
PfDPCK, sequence (Q8IL34 entry or part of it): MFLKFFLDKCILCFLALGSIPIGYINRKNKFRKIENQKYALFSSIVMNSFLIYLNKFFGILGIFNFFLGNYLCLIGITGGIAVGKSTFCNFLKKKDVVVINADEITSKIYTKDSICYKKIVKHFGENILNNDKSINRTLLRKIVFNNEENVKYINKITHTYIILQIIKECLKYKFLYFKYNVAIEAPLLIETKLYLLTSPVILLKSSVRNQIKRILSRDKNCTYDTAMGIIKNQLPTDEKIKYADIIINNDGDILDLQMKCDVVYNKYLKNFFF
Experimental: High-throughput screening against recombinant PfDPCK was performed using the Drug Discovery Initiative (DDI) full library, available from The University of Tokyo, composed of approximately 210,000 compounds. The primary assay was performed on 1,536-well white plate format with a final volume of 2 μL/well, containing 10 μM test compounds using a Multidrop Combi reagent dispenser (Thermo Fisher Scientific, Waltham, MA). The reaction was conducted in the assay buffer described above with 100 μM ATP and 50 μM dephospho-CoA. The assay was carried out at room temperature for 4 h in a closed plastic container with wet tissues. The reaction was stopped, and produced ADP was quantified using an enzyme-coupled fluorescence ADP detection assay, using PHERAstar microplate reader (BMG Labtech, Offenburg, Germany) with excitation at 540 nm and emission at 590 nm, as previously described ([17]). The inhibition level was calculated as the percentage inhibition of DPCK activity with each compound compared to the activity with only dimethyl sulfoxide (DMSO) as control (no inhibition) and that with no enzyme as 100% inhibition. IC50 values of the hit compounds were determined under the same assay conditions for the screening: Z′ factor, signal-to-background ratio (S/B), signal-to-noise ratio (S/N), and coefficient of variation (CV) were calculated to estimate the quality of screening system as previously described ([18], [38]).
The primary hits were reassayed in quadruplicate (n = 4) as in the primary screening. We next tested the confirmed secondary hits to exclude false positives that inhibit coupled fluorescence assay, but not PfDPCK. After exclusion of false positives, all tertiary hits were tested against human HsCOASY in the counterassay to exclude compounds that inhibit both PfDPCK and HsCOASY. The compounds showing >10% inhibition against HsCOASY were excluded from further studies. The IC50 values of the hit compounds were determined under the same assay conditions described as above for the primary screening, with the serially diluted compounds at 20, 10, 2.5, 0.5, and 0.1 μM at final concentrations. The assay was conducted in quadruplicate for each dilution, and IC50 values were calculated using GraphPad Software (San Diego, California USA).

[1] = test system: P. falciparum drug-sensitive 3D7 strain; experiment: Erythrocytic-stage parasite growth inhibition, diaphorase-coupled LDH assay, 3D7; assay type: cell-based, Plasmodium falciparum; conditions: for IC50: Plasmodium falciparum; for Selectivity index IC50 (HepG2/3D7): HepG2 IC50 / 3D7 IC50
Experimental: (§1) Selected hit compounds were also tested against erythrocytic-stage parasites of P. falciparum drug-sensitive 3D7 and drug-resistant Dd2 strains ([39]). For the phenotypic assay, parasite cultures were synchronized with 5% (wt/vol) D-sorbitol as previously described ([40]). A synchronized culture containing ring-stage parasites of 0.3% parasitemia was initiated with a culture volume of 25 μL/well on a 384-well plate. A series of diluted compounds (at final concentrations of 50, 10, 2, 0.4, and 0.08 μM) were used to calculate IC50 values. Mefloquine at 50 μM and atovaquone at 20 μM were used as no-growth control (100% inhibition). After 72 h of incubation, parasite growth was measured by diaphorase-coupled lactate dehydrogenase (LDH) assay as previously described ([41]). Absorbance at 650 nm was measured using SpectraMax Paradigm multimode microplate reader (Molecular Devices, San Jose, CA, USA). The IC50 values were calculated as described above.

[2] = test system: P. falciparum drug-resistant Dd2 strain; experiment: Erythrocytic-stage parasite growth inhibition, diaphorase-coupled LDH assay, Dd2; assay type: cell-based, Plasmodium falciparum; conditions: for IC50: Plasmodium falciparum
Experimental: as §1

HepG2 cell line = experiment: Cytotoxicity assay (Cell Counting Kit-8); assay type: cell-based, human; conditions: Homo sapiens
Experimental: Cytotoxicity against human cells was evaluated using the human liver carcinoma HepG2 cell line. HepG2 cells were cultured in D-MED supplemented with 4 mM L-glutamine and 10% fetal bovine serum (FBS) in a 75-cm^2 flask (Violamo) at 37°C. For the cytotoxicity assay, HepG2 cells in semiconfluent state were detached from the flask by incubating the cells with 5 mL D-MEM containing 0.25% trypsin-EDTA. After detachment, HepG2 cells were resuspended in D-MEM-supplemented L-glutamine and FBS, and cell viability was evaluated by incubating cells with 0.4% Trypan blue on a hemocytometer. An approximately 50-μL suspension containing 3,000 cells was dispensed into each well on a 384-well clear-bottom plate using a Multidrop Combi dispenser. Compounds dissolved in DMSO had been dispensed into wells to yield final concentrations of 100, 20, 4, 0.8, and 0.2 μM before cells were added. After cells were added to the plates, they were cultured at 37°C under 5% CO2. After 48 h cultivation, 5 μL of Cell Counting Kit-8 (Dojindo, Japan) was added, and the plates were further incubated for 2 h to assess cell growth and survival.

[3] = recombinant enzyme, means ± SEMs, read-out: IC50 (μM) of: PfDPCK
[4] = drug-sensitive 3D7, 72 h, means ± SEMs, read-out: IC50 (μM) of: Pf cell 3D7
[5] = drug-resistant Dd2, 72 h, means ± SEMs, read-out: IC50 (μM) of: Pf cell Dd2
[6] = HepG2, ND (maximum concentration tested 100 μM), read-out: IC50 (μM) of: HepG2
[7] = HepG2, 48 h, means ± SEMs, read-out: IC50 (μM) of: HepG2
[8] = 3D7, 72 h, read-out: IC50 (μM) of: Pf cell 3D7
[9] = DD2, 72 h, read-out: IC50 (μM) of: Pf cell Dd2
[10] = HepG2, read-out: IC50 (μM) of: HepG2
[11] = Table 2, PfDPCK inhibitor scaffolds Gr4, Gr5, Gr8, read-out: IC50
[12] = 3D7, Table S1, means ± SEM, read-out: IC50 (μM) Pf cell 3D7
[13] = DD2, Table S1, means ± SEM, read-out: IC50 (μM) Pf cell Dd2

IC50 (PfDPCK; [3]) [µM] | IC50 [1, 4] [µM] | IC50 [2, 5] [µM] | Compound | IC50 (HepG2 cell line; [6]) [µM] | Selectivity index IC50 (HepG2/3D7) [1] | Selectivity index IC50 (HepG2/Dd2) [2] | IC50 (HepG2 cell line; [7]) [µM] | also measured
3.5 ± 0.04 | 14.45 ± 0.08 | 3.41 ± 1.22 | Cc1ccc(-c2nnc(Nc3ccc(O)cc3)c3ccccc23)cc1S(=O)(=O)NCCO [Compound A-26] | > 100 |  |  |  | 
3.83 ± 0.03 | 0.08 ± 0.01 | 0.09 ± 0.06 | CCN(CC)CCn1c(=N)n(CC(=O)c2cc(C(C)(C)C)c(O)c(C(C)(C)C)c2)c2ccccc21 [Compound A-30] |  | 45.1 | 43.5 | 3.75 ± 3.55 | 
 |  |  | CC1(C)NC(C(=O)O)C23c4c5c6c7c8c9c(c%10c%11c2c2c4c4c%12c5c5c6c6c8c8c%13c9c9c%10c%10c%11c%11c2c2c4c4c%12c%12c5c5c6c8c6c8c%13c9c9c%10c%10c%11c2c2c4c4c%12c5c6c5c8c9c%10c2c45)C713 (stereo not drawn) [Compound A-31] |  |  |  |  | IC50 (PfDPCK): 3.83 ± 0.04 µM; IC50 [1, 8]: > 50 µM; IC50 [2, 9]: 0.67 ± 0.02 µM; IC50 (HepG2 cell line; [10]): > 100 µM
4.87 ± 0.05 | 29.06 ± 0.2 | 0.7 ± 0.1 | COc1ccc(NC(C)=O)cc1/N=C/c1cc(Br)cc(Br)c1O [Compound A-38] |  | >3.4 | >142.8 | > 100 | 
 |  |  | Cc1cccc(-n2cc(-c3ccccc3)c3c(NCCOCCO)ncnc32)c1 [Compound A-42] |  |  |  |  | IC50 (PfDPCK; [11]): 6.14 ± 0.28 µM; IC50 [1, 12]: 38.2 ± 2.91 µM; IC50 [2, 13]: 49.7 ± 3.22 µM; IC50 (HepG2 cell line; HepG2, Table S1, means ± SEM, read-out: IC50 (μM) HepG2): 63.2 ± 3.48 µM
6.33 ± 0.11 | 3.96 ± 0.04 | 1.75 ± 0.05 | Cc1cc(-c2csc(N3CCCC3)n2)c(C)n1-c1c(C)n(C)n(-c2ccccc2)c1=O [Compound A-44] | > 100 |  |  |  | 
 |  |  | O=C(O)C1NC(c2ccncc2)C23c4c5c6c7c8c9c(c%10c%11c2c2c4c4c%12c5c5c6c6c8c8c%13c9c9c%10c%10c%11c%11c2c2c4c4c%12c%12c5c5c6c8c6c8c%13c9c9c%10c%10c%11c2c2c4c4c%12c5c6c5c8c9c%10c2c45)C713 (stereo not drawn) [Compound A-45] |  |  |  |  | IC50 (PfDPCK): 6.68 ± 0.24 µM; IC50 [1, 8]: 15.6 ± 0.61 µM; IC50 [2, 9]: 1.29 ± 0.02 µM; IC50 (HepG2 cell line; [10]): > 100 µM
6.99 ± 0.13 | > 50 | 6.62 ± 1.12 | COC(C(=O)N/N=C/c1ccccc1)c1ccccc1 (stereo not drawn) [Compound A-50] | > 100 |  |  |  | 
7.05 ± 0.08 | 15.76 ± 0.12 | 0.62 ± 0.23 | Cc1cn2c(/C=C3\C(=O)N(C)c4ccccc43)c(C)nc2s1 [Compound A-51] |  | >6.3 | >166.6 | > 100 | 
8.35 ± 0.05 | 34.14 ± 0.04 | 5.53 ± 0.95 | O=C1NC(=O)/C(=C/c2ccc(C(=O)Nc3ccc(O)cc3C(=O)O)cc2)S1 [Compound A-60] | > 100 |  |  |  | 
 |  |  | Cc1cc(-c2csc(-c3ccsc3)n2)c(C)n1CCCCCC(=O)O [Compound A-96] |  |  |  |  | IC50 (PfDPCK; [11]): 14.7 ± 0.28 µM; IC50 [1, 12]: 31 ± 2.1 µM; IC50 [2, 13]: 27.7 ± 2.6 µM
 | 0.013 ± 0.006 | 0.19 ± 0.07 | OC(c1cc(C(F)(F)F)nc2c(C(F)(F)F)cccc12)C1CCCCN1 (stereo not drawn) [Mefloquine, reference compound] |  | 133 | 8.8 | 1.73 ± 0.7 | 
